According to patent US20230183243A1, “HETEROARYL DERIVATIVES AND PHARMACEUTICAL COMPOSITION COMPRISING SAME AS ACTIVE INGREDIENT” (VORONOI INC., priority 2019, published 2023):

Columns and labels:
MDA-MB-231 cells = test: Inhibition of proliferation of triple-negative breast cancer cells, CellTiter-Glo; type: cell-based; conditions: Homo sapiens, 120 h; MDA-MB-231, cultured for 5 days
Outline: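 MDA-MB-231 cells pre-cultured 24 h (5% CO2, 37 °C), then exposed to compound for 5 days at 12 three-fold dilutions, final 10 μM to 0.05 nM. Viability read by CellTiter-Glo luminescence after 10 min at 37 °C; growth inhibition calculated relative to untreated solvent-control cells.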

A549 = test: Cell proliferation inhibition, carcinomas other than TNBC; type: cell-based; conditions: Homo sapiens
Experimental: (§1) To check an ability to inhibit the growth of (MDA-MB-231) cells in two triple-negative breast cancer cell lines, a test was performed, as follows. Cells were seeded in 180 μL of a culture broth at a density of 2,000 to 3,000 cells/well in a white clear bottom 96-well plate (Corning) according to the growth ability of each cell, and then cultured for 24 hours under conditions of 5% CO2 and 37° C. Thereafter, the compound was prepared by diluting a 10 mM stock solution three-fold with 100% DMSO at a total of 12 concentrations so that a peak concentration of the compound was in a range of 10 mM to 0.05 μM, and the diluted compound was then diluted in each cell culture medium so that a final concentration of the compound was in a range of 100 μM to 0.5 nM. 20 μL of a diluted solution diluted with a medium was added to the cell solution in which cells were seeded in the 96-well plate on the previous day so that a final concentration of the diluted solution was in a range of 10 μM to 0.05 nM. Each of the cells was cultured for 5 days. To check cell viability, a mixture provided in a CellTiter-Glo® Luminescent Cell Viability Assay Kit (Promega) was added to each of the cultured cell media, and cultured for another 10 minutes under a condition of 37° C. Then, a degree of luminescence (fluorescence) was measured. A degree of inhibition of the cell growth according to the treatment concentration of each of the compounds was calculated based on the fluorescence of the solvent control cells which were not treated with the compound. In this case, the concentration of each of the compounds inhibiting 50% of the cell growth was determined to be a GI50 (nM) value, and calculated using Prism (Version 7.01; GraphPad) software.
(§2) Next, the activities of the Example compounds against various types of carcinomas other than the TNBC were evaluated in a similar manner as described above. In the following table, the following active value range (GI50 (nM)) was used to evaluate cell proliferation inhibitory activity.

BxPC3 = test: as above; type: cell-based; conditions: Homo sapiens, BXPC-3
Experimental: as §1, §2

DU145 = test: as above; type: cell-based; conditions: Homo sapiens, DU-145
Experimental: as §1, §2

HCT116 = test: as above; type: cell-based; conditions: Homo sapiens, HCT-116
Experimental: as §1, §2

JNK1 = target: T1, JNK1 (Homo sapiens, UniProt P45983); test: JNK enzyme activity, Kinase HotSpot service (Reaction Biology Corporation); type: biochemical; conditions: ATP concentration of 10 μM
T1 construct: purchased DiscoverX Corp. (ScanMAX Kinase panel, commissioned)
T1 sequence (P45983 whole entry): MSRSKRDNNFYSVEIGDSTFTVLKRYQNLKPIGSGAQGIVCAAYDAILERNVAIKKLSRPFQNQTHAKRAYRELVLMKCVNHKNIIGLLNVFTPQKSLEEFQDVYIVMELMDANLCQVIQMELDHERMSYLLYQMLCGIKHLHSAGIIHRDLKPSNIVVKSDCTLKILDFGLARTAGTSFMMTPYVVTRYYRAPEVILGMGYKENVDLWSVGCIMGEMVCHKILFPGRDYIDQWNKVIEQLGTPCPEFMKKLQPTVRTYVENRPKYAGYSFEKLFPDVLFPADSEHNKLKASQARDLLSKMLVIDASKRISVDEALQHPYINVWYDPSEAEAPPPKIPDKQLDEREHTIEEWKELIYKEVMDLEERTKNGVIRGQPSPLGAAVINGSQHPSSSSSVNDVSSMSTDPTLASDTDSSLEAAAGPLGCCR
Experimental: (§3) IC50 values of the compound of Example 7 for the enzymes were measured using the Kinase HotSpot service (Reaction Biology Corporation), and a test was performed under the same conditions at an ATP concentration of 10 μM. The concentration of the compound was measured at a 3-fold concentration gradient from the peak concentration of 10 mM.
(§4) All the experimental methods were performed as provided in the Kinase HotSpot Customer Protocol (http://www.reactionbiology.com//Kinase_Assay_Protocol).

JNK2 = target: T2, JNK2 (Homo sapiens, UniProt P45984); test: as above; type: biochemical; conditions: ATP concentration of 10 μM
T2 construct: purchased DiscoverX Corp. (ScanMAX Kinase panel, commissioned)
T2 sequence (P45984 whole entry): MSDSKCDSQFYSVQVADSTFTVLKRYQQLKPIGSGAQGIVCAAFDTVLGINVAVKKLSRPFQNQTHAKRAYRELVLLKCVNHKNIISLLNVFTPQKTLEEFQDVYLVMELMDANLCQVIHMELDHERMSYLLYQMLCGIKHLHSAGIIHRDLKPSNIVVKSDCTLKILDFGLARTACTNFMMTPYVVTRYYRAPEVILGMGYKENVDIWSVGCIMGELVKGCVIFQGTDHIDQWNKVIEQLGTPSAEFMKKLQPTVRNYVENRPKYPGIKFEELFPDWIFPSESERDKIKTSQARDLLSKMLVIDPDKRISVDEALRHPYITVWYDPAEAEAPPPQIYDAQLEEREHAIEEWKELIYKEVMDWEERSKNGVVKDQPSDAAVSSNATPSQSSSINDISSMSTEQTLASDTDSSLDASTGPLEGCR
Experimental: as §3, §4

JNK3 = target: T3, JNK3 (Homo sapiens, UniProt P53779); test: as above; type: biochemical; conditions: ATP concentration of 10 μM
T3 construct: purchased DiscoverX Corp. (ScanMAX Kinase panel, commissioned)
T3 sequence (P53779 whole entry): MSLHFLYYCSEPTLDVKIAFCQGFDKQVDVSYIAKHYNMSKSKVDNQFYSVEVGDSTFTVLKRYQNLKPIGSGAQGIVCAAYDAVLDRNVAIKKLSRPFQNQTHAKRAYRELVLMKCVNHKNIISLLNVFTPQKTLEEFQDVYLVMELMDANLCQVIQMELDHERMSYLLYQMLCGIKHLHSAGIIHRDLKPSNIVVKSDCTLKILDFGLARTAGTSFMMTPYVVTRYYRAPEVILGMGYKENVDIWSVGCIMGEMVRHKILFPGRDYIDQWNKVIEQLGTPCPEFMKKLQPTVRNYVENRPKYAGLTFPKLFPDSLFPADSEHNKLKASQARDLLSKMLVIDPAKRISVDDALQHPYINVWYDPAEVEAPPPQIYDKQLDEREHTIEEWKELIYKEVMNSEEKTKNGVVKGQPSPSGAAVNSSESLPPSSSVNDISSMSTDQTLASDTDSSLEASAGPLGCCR
Experimental: as §3, §4

LRRK2 = LRRK2 (Homo sapiens, UniProt Q5S007); test: LRRK2 enzyme activity, ADP-Glo kinase assay; type: biochemical; parameters: purchased Invitrogen PR8604B; conditions: purified human LRRK2, ATP 10 μM, 25° C., 2 hours
LRRK2, sequence (Q5S007 970-2527 limits assumed): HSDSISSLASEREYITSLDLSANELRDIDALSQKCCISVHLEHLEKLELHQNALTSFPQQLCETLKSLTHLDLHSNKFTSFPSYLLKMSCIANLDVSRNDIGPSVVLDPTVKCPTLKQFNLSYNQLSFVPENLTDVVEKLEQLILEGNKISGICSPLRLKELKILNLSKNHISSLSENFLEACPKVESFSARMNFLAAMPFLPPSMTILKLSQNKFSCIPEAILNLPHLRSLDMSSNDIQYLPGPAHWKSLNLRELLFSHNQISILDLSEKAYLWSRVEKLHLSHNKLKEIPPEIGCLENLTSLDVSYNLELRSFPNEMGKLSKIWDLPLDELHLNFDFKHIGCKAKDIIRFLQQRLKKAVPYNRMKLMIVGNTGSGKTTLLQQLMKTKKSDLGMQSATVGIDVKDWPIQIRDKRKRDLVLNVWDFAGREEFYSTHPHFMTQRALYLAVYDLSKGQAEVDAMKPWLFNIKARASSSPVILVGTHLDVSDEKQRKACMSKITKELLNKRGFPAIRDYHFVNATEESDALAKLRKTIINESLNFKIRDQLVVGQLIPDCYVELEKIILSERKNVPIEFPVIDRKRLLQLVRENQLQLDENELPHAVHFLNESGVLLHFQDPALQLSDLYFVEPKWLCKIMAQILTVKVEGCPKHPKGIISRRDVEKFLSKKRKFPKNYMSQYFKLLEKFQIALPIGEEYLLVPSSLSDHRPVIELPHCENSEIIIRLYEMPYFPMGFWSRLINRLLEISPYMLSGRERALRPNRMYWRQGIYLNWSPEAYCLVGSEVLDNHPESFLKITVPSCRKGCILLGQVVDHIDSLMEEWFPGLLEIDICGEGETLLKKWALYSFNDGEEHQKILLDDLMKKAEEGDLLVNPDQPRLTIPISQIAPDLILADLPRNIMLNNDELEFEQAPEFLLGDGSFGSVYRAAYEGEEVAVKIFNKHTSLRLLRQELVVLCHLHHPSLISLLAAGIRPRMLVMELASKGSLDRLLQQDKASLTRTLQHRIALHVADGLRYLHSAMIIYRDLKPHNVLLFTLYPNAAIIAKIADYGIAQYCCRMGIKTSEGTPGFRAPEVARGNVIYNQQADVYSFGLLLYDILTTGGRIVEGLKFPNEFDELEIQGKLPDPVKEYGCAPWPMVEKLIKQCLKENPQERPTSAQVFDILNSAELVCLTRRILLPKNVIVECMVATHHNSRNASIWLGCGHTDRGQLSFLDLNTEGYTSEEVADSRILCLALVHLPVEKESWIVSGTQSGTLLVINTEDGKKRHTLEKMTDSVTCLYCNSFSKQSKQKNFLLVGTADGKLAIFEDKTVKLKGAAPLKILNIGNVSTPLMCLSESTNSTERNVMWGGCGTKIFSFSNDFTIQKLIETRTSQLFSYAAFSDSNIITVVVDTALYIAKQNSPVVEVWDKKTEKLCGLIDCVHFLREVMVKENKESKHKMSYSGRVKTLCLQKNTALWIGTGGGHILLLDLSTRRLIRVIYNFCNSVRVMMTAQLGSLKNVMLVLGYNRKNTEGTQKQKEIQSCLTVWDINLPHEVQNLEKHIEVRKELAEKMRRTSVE
Experimental: To evaluate the inhibitory activity of the compound according to the present invention against LRRK2 and JNKs, an experiment was performed as follows.
The compound of Example 7 was reacted with a purified human LRRK2 (Invitrogen #PR8604B) enzyme to evaluate an ability of the compound of Example 7 to inhibit the enzyme using a method as described below. A composition of 40 mM Tris-HCl (pH 7.4), 20 mM MgCl2, 0.5 mg/mL BSA, and 50 μM DTT was used as a reaction buffer, and all reactions of test substances were performed in the reaction buffer. The compound was diluted […] from a 10 mM DMSO stock using a serial dilution method, and enzyme activity was measured at final compound concentrations of 50, 10, 2, 0.4, 0.08, 0.016, 0.0032, 0.00064, 0.000128, 0.0000256, 0.00000512, and 0.000001024 μM. In the test, purified ATP (10 μM) and an enzyme substrate (0.2 μg) were reacted with a human LRRK2 (25 ng) enzyme at 25° C. for 2 hours, and the enzyme activity was then determined using an in vitro ADP-Glo™ kinase assay (Promega). An enzyme-activity reaction solution, an ADP-Glo reaction solution, and an enzyme-ability detection solution were reacted at a ratio of 2:2:1 to measure a degree of inhibition of the enzyme activity with luminescence. […]

| GI50 (MDA-MB-231 cells) | GI50 (A549) | GI50 (BxPC3) | GI50 (DU145) | GI50 (HCT116) | IC50 (JNK1) | IC50 (JNK2) | IC50 (JNK3) | IC50 (LRRK2) | Structure (SMILES) |
| --- | --- | --- | --- | --- | --- | --- | --- | --- | --- |
| < 100 nM | < 100 nM | < 100 nM | < 100 nM | < 100 nM |  |  |  |  | COc1cc(N2CCCC2=O)ccc1Nc1cc(NC2CCCCC2)c2c(C#N)c[nH]c2n1 [Example 64, 4-(cyclohexylamino)-6-((2-methoxy-4-(2-oxopyrrolidin-1-yl)phenyl)amino)-1H-pyrrolo[2,3-b] pyridine-3-carbonitrile] |
| < 100 nM |  |  |  |  | < 100 nM | < 100 nM | < 100 nM | < 1000 nM | COc1cc(-c2ccnn2C)ccc1Nc1nc(NC2CCCCC2)c2c(C#N)c[nH]c2n1 [Example 7, 4-(cyclohexylamino)-2-((2-methoxy-4-(1-methyl-1H-pyrazol-5-yl)phenyl)amino)-7H-pyrrolo[2,3-d] pyrimidine-5-carbonitrile] |
